Assay [1] deals with T1, human recombinant 11β-HSD1 (Homo sapiens, UniProt P28845).
T1 construct: made in house
The experiment in a line: Measuring test of human 11β-HSD1-inhibitory activity (HTRF cortisol detection). Type of assay: biochemical. The settings on record: human recombinant 11β-HSD1, 20 nM cortisone, 40 μM NADPH, pH 6.6, room temperature 1 hour. As for the experimental part:
The procedure for measuring 11β-HSD1-inhibitory activity is as follows. In this connection, the enzyme reaction and measurement were carried out using a 384-well plate. The enzyme was prepared in accordance with a reference (Walker E. A. et al., Journal of Biological Chemistry, 2001, vol. 276, p. 21343-21350). The reaction was carried out by adding the compound to be tested having varied concentration to a reaction liquid consisting of 10 mM phosphate buffer (pH 6.6), 20 nM cortisone, 40 μM reduced nicotinamide adenine dinucleotide phosphate (NADPH) and human recombinant 11β-HSD1, and then incubating at room temperature for 1 hour (10 μl/well). The compound to be tested was prepared by dissolving in dimethyl sulfoxide (DMSO) to a DMSO concentration of 1% in the reaction liquid. After the enzyme reaction, the enzyme inhibitory activity was measured by detecting cortisol using a homogeneous time-resolved fluorescence method (HTRF). Each of the XL-665-labeled cortisol containing 400 μM carbenoxolone and cryptate-labeled cortisol antibody (CIS bio international) was added in 5 μl/well portions and incubated at room temperature for 2 hours, and then the fluorescence intensity was measured using a fluorophotometer (trade name: Discovery, Perkin Elmer), and the enzyme inhibitory activity was calculated from the fluorescence intensity ratio at two wavelengths (665 nm/620 nm).
(§1) The measured result was calculated by averaging the values of 3 wells of the same condition. The ratio when DMSO was added instead of the compound to be tested was regarded as 0% and the ratio when 11β-HSD1 or 11β-HSD2 was not added was regarded as 100%, thereby calculating 50% inhibition concentration of the compound to be tested as IC50 of the compound inhibitory activity.
On the technique in general: TR-FRET usually uses a lanthanide donor and a delayed reading to cut background.

In assay [2] the test system is ob/ob male mice. Put plainly: Ob/ob mouse blood glucose-lowering test. The assay is classed as in vivo. The note with it: oral 10 mg/kg bid for 9 days, non-fasting, 12 hours after final administration, n=6. On the procedure: (§2) Using 6% 2-hydroxypropyl-β-cyclodextrin as the solvent, a compound liquid was prepared. Blood glucose values were measured under non-fasting using ob/ob male mice of 9 weeks of age (blood glucose value, 300 mg/dl or more), and then arrangement into groups was carried out at random in such a manner that their blood glucose values became uniform. The compound to be tested was repeatedly orally administered (10 mg/kg, bid) twice a day for 9 days, and blood glucose values after 12 hours of the final administration were measured (n=6). The blood glucose value was measured by carrying out colorimetric determination of the amount of glucose (mg/dl) in heparin blood plasma obtained by collecting blood in a heparin-coated glass capillary and subsequently centrifuging it.

Assay [3] concerns ob/ob male mice. The experiment in a line: Ob/ob mouse triglyceride-lowering test. Type of assay: in vivo. The note with it: oral 10 mg/kg bid for 9 days, non-fasting, 12 hours after final administration, n=6. On the procedure: as §2, with “Triglyceride” for “Blood glucose”, “age,” for “age (blood glucose value, 300 mg/dl or more),”, “triglyceride” for “blood glucose”, “Triglyceride” for “The blood glucose value”, “triglyceride” for “glucose”

The target in assay [4] is T2, human recombinant 11β-HSD2 (Homo sapiens, UniProt P80365).
T2 sequence (P80365 1-405): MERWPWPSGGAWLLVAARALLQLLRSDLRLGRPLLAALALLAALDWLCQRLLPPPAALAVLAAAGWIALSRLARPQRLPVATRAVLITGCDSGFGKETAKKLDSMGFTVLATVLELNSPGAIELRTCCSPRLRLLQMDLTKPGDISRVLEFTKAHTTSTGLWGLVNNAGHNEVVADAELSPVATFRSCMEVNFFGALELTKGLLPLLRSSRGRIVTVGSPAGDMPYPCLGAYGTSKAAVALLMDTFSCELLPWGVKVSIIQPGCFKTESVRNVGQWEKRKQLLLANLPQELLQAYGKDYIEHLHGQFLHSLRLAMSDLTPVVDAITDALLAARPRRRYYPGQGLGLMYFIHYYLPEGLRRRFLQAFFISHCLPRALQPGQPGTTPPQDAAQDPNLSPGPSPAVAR
Put plainly: Measuring test of human 11β-HSD2-inhibitory activity (HTRF cortisol detection). The assay is classed as biochemical. The settings on record: human recombinant 11β-HSD2, 200 nM cortisol, 200 μM NAD, pH 8.0, 37° C. 2 hours. On the procedure: Measurement of the 11β-HSD2 activity was carried out by the same method of the 11β-HSD1 activity measurement, except for the enzyme reaction conditions. The enzyme reaction was carried out by adding the compound to be tested having varied concentration to a reaction liquid consisting of 40 mM Tris-HCl buffer (pH 8.0), 200 nM cortisol, 200 μM nicotinamide adenine dinucleotide (NAD) and human recombinant 11β-HSD2, and then incubating at 37° C. for 2 hours (10 μl/well).
as §1

T1 sequence (P28845 whole entry): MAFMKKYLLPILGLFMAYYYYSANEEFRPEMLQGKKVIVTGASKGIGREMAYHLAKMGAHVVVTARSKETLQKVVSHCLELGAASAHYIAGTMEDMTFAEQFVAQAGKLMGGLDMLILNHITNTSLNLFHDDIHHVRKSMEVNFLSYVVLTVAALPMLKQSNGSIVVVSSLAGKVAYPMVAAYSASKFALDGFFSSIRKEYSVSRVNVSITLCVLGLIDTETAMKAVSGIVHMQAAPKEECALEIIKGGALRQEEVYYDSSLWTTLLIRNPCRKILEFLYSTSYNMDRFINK

Regarding `CC(C)(c1ccc(Br)s1)c1nnc(C2CC2)n1C1CC1` [Example 3, 3-[1-(5-bromo-2-thienyl)-1-methylethyl]-4,5-dicyclopropyl-4H-1,2,4-triazole], the half-inhibitory concentration (IC50) was 0.0079 µM in assay [1] and over 3 µM in assay [4]. Further, in assay [2], the blood glucose-lowering action was 27%. The compound further registered a triglyceride-lowering action in assay [3] of 50%.
As to `CC(C)(c1nnc(C2CC2)n1C1CC1)n1cccc1Cl` [Example 9, 3-[1-(2-chloro-1H-pyrrol-1-yl)-1-methylethyl]-4,5-dicyclopropyl-4H-1,2,4-triazole], the IC50 in assay [1] was 0.062 µM; in assay [4] it was over 30 µM.
The corresponding values for `CN(C1CCC1)C(C)(C)c1nnc(C2CC2)n1C1CC1` [Example 57] are 0.07 µM and over 30 µM.
For `CC(C)(c1cc(Br)cs1)c1nnc(C2CC2)n1C1CC1` [Example 77], the values for the IC50 in assay [1] and in assay [4] were 0.012 µM and over 10 µM, respectively.
On to `CC(C)(c1cccc(Cl)n1)c1nnc(C2CC2)n1CCc1ccccc1` [Example 85], for which the half-maximal inhibitory concentration (IC50) in assay [1] is 0.034 µM; in assay [4] it was over 10 µM.
For `CC(C)(c1ccccn1)c1nnc(C2CC2)n1CCc1c(F)cccc1F` [Example 154], the IC50 was 0.038 µM in assay [1] and over 30 µM in assay [4]. In assay [2], this compound displayed a blood glucose-lowering action of 21%.
As for `CC(C)(c1ccc(Br)s1)c1nnc(C2CC2)n1CCc1c(F)cccc1F` [Example 167], the 50% inhibitory concentration (IC50) is 0.07 µM in assay [1] and over 30 µM in assay [4]. In assay [2], this compound returned a blood glucose-lowering action of 24%.
On to `CC(C)(c1ccc(C(F)(F)F)s1)c1nnc(C2CC2)n1C1CC1` [Example 169], for which the concentration for half-maximal inhibition (IC50) in assay [1] is 0.024 µM; in assay [4] it was over 10 µM.
Consider `CC(C)(c1ccsc1)c1nnc(C2CC2)n1C1CC1` [Example 172], for which the IC50 in assay [1] is 0.019 µM; in assay [4], over 10 µM. The compound also yielded a blood glucose-lowering action in assay [2] of 27%.
Consider `CC(C)(c1ccsc1)c1nnc(C2CCC2)n1C1CC1` [Example 173], for which the results for the IC50 in assay [1] and in assay [4] were 0.012 µM and over 10 µM, respectively.
The corresponding values for `Fc1ccc(CCn2c(C3CC3)nnc2C2(c3ccccn3)CCC2)cc1` [Example 198] are 0.025 µM and over 10 µM.
As for `Brc1ccn(C2(c3nnc(C4CC4)n3C3CC3)CCC2)c1` [Example 213], the IC50 in assay [1] was 0.041 µM; in assay [4], over 10 µM.
`CC(C)(c1sc(C(F)(F)F)cc1F)c1nnc(C2CC2)n1C1CC1` [Example 280]: the half-inhibitory concentration (IC50) in assay [1] was 0.0047 µM; in assay [4], over 3 µM. The compound further came in with a blood glucose-lowering action in assay [2] of 35%. The compound also registered a triglyceride-lowering action in assay [3] of 42%.
Turning to `Cn1c(C(C)(C)C)nnc1C(C)(C)c1ccc(Cl)s1` [Example 281], the IC50 is 0.0052 µM in assay [1] and over 3 µM in assay [4].
Consider `Cn1c(C2(C)CC2)nnc1C(C)(C)c1ccc(Cl)s1` [Example 283], for which the values for the IC50 in assay [1] and in assay [4] were 0.0024 µM and over 3 µM, respectively.

As a reminder, the IC50 is the concentration needed to halve the response being measured.

The values above are taken from patent publication US20090082367A1, “TRIAZOLE DERIVATIVE OR A SALT THEREOF” (ASTELLAS PHARMA INC., priority 2006, published 2009).
